Patent publication US7671068B2, “N-(alkoxyalkyl) carbamoyl-substituted 6-phenyl-benzonaphthyridine derivatives and their use as PDE ¾ inhibitors” (NYCOMED GmbH, priority 2004, dated 2010)

Experiments:
Type in all cases: biochemical
PDE3A1 = target: T1, PDE3A1 (Homo sapiens, UniProt Q14432); assay: PDE3A1 inhibition, Method B (modified SPA test, recombinant enzyme); conditions: 0.5 μM cAMP, read-out: PDE3 [−log IC50, mol/l] (converted)
T1 construct: The whole ORF was subcloned into pBacPak9 (Clontech, Palo Alto) using EcoRI; made in house; host or cells: baculovirus (pBacPak9), SF21 insect cells (virus made in SF9); 1000xg supernatant of the homogenate
From the text: The cDNA for PDE3A1 (GB no. U36798) was isolated in 2 steps using PCR. A 3′ terminal cDNA fragment of PDE3A1 was amplified from fat cells cDNA (Clontech, Palo Alto) using primers OZ 458 (5′-[…]-3′) and OZ 457 (5′-[…]-3′). The 5′ terminal cDNA fragment of PDE3A1 was amplified from Placenta cDNA (Clontech, Palo Alto) using primers OZ 455 (5′-[…]-3′) and OZ 456 (5′-[…]-3′). The PCR products were cloned into pCR2.1-Topo (Invitrogen, Groningen, NL) under standard conditions (the manufacturer's instructions). The 3′ fragment was cut out with HindII and cloned into the HindII site of the construct carrying the 5′ fragment. The whole ORF was subcloned into pBacPak9 (Clontech, Palo Alto) using EcoRI. Aminoacid 12 is Aspartic Acid like in sequence GB no. AJ005036, aa 69 and aa 110 are respective Serine and Glycine like in both sequences GB no. AJ005036 and GB no. M91667.
(§1) The recombinant baculovirus was prepared by means of homologous recombination in SF9 insect cells. The expression plasmids were cotransfected with Bac-N-Blue (Invitrogen, Groningen, NL) or Baculo-Gold DNA (Pharmingen, Hamburg) using a standard protocol (Pharmingen, Hamburg). Wt virus-free recombinant virus supernatants were selected using plaque assay methods. After that, high-titre virus supernatants were prepared by amplifying 3 times. PDEs were expressed in SF21 cells by infecting 2×10^6 cells/ml with an MOI (multiplicity of infection) between 1 and 10 in serum-free SF900 medium (Life Technologies, Paisley, UK). The cells were cultured at 28° C. for 48-72 hours, after which they were pelleted for 5-10 min at 1000 g and 4° C.
(§2) The SF21 insect cells were resuspended, at a concentration of approx. 10^7 cells/ml, in ice-cold (4° C.) homogenization buffer (20 mM Tris, pH 8.2, containing the following additions: 140 mM NaCl, 3.8 mM KCl, 1 mM EGTA, 1 mM MgCl2, 10 mM β-mercaptoethanol, 2 mM benzamidine, 0.4 mM Pefablock, 10 μM leupeptin, 10 μM pepstatin A, 5 μM trypsin inhibitor) and disrupted by ultrasonication. The homogenate was then centrifuged for 10 min at 1000×g and the supernatant was stored at −80° C. until subsequent use (see below). The protein content was determined by the Bradford method (BioRad, Munich) using BSA as the standard.
PDE3A1 and PDE4B2 activities were inhibited by the said compounds in a modified SPA (scintillation proximity assay) test, supplied by Amersham Biosciences (see procedural instructions “phosphodiesterase [3H]cAMP SPA enzyme assay, code TRKQ 7090”), carried out in 96-well microtitre plates (MTP's). The test volume is 100 μl and contains 20 mM Tris buffer (pH 7.4), 0.1 mg of BSA (bovine serum albumin)/ml, 5 mM Mg^2+, 0.5 μM cAMP (including about 50,000 cpm of [3H]cAMP), 1 μl of the respective substance dilution in DMSO and sufficient recombinant PDE (1000×g supernatant, see above) to ensure that 10-20% of the cAMP is converted under the said experimental conditions. […] After the beads have been sedimented (>30 min), the MTP's are analyzed in commercially available luminescence detection devices. The corresponding IC50 values of the compounds for the inhibition of PDE activities are determined from the concentration-effect curves by means of non-linear regression.
(§3) The inhibitory values of the compounds 1-16 and 22-24 have been determined according to Method A. The inhibitory values of the compounds 17-21 have been determined according to Method B.

PDE4B2 = target: T2, PDE4B2 (Homo sapiens, UniProt Q07343); assay: PDE4B2 inhibition, Method B (modified SPA test, recombinant enzyme); conditions: 0.5 μM cAMP, read-out: PDE4 [−log IC50, mol/l] (converted)
T2 construct: made in house; host or cells: baculovirus, SF21 insect cells (virus made in SF9); 1000xg supernatant of the homogenate
Description: The PDE4B2 (GB no. M97515) was a gift of Prof. M. Conti (Stanford University, USA). It was amplified from the original plasmid (pCMV5) via PCR with primers Rb9 (5′-[…]-3′) and Rb10 (5′-[…]-3′) and cloned into the pCR-Bac vector (Invitrogen, Groningen, NL).
as §1, §2
PDE3A1 and PDE4B2 activities were inhibited by the said compounds in a modified SPA (scintillation proximity assay) test, supplied by Amersham Biosciences (see procedural instructions “phosphodiesterase [3H]cAMP SPA enzyme assay, code TRKQ 7090”), carried out in 96-well microtitre plates (MTP's). The test volume is 100 μl and contains 20 mM Tris buffer (pH 7.4), 0.1 mg of BSA (bovine serum albumin)/ml, 5 mM Mg^2+, 0.5 μM cAMP (including about 50,000 cpm of [3H]cAMP), 1 μl of the respective substance dilution in DMSO and sufficient recombinant PDE (1000×g supernatant, see above) to ensure that 10-20% of the cAMP is converted under the said experimental conditions. […] After a preincubation of 5 min at 37° C., the reaction is started by adding the substrate (cAMP) and the assays are incubated for a further 15 min; after that, they are stopped by adding SPA beads (50 μl). In accordance with the manufacturer's instructions, the SPA beads had previously been resuspended in water, but were then diluted 1:3 (v/v) in water; the diluted solution also contains 3 mM IBMX to ensure a complete PDE activity stop. After the beads have been sedimented (>30 min), the MTP's are analyzed in commercially available luminescence detection devices. The corresponding IC50 values of the compounds for the inhibition of PDE activities are determined from the concentration-effect curves by means of non-linear regression.
as §3

[1] = system: PDE4 (cAMP-specific) in the cytosol of human polymorphonuclear leukocytes (PMNL); assay: PDE4 inhibition, Method A (radioactive PDE assay after Thompson et al.); conditions: cAMP substrate, motapizone 1 μM
Description: (§4) The PDE activity was determined according to Thompson et al. (Adv Cycl Nucl Res 10: 69-92, 1979) with some modifications (Bauer and Schwabe, Naunyn-Schmiedeberg's Arch Pharmacol 311: 193-198, 1980). The test samples contained 20 mM Tris (pH 7.4), 5 mM MgCl2, 0.5 μM CAMP or cGMP, [^3H]cAMP or [^3H]cGMP (about 30 000 cpm/sample), the PDE isoenzyme-specific additives described in greater detail below, the indicated concentrations of inhibitor and an aliquot of the enzyme solution in a total sample volume of 200 μl. Dilution series of the compounds according to the invention were prepared in DMSO and further diluted in the samples [1:100 (v/v)], to give the desired end concentration of the inhibitors at a DMSO concentration of 1% (v/v), which for its part has only a minute effect on PDE activity.
(§5) After preincubation at 37° C. for 5 minutes, the reaction was started by addition of the substrate (CAMP or cGMP). The samples were incubated at 37° C. for a further 15 min. The reaction was terminated by addition of 50 μl 0.2 N HCl. After cooling on ice for 10 minutes and addition of 25 μg 5′-nucleotidase (snake venom from Crotalus atrox), the mixture was again incubated at 37° C. for 10 min and the samples were then applied to QAE Sephadex A-25 columns (sample volume 1 ml). The columns were eluted with 2 ml of 30 mM ammonium formate (pH 6.0). The radioactivity of the eluate was measured and corrected by the corresponding blank values (measured in the presence of denatured protein); the blank values were less than 5% of the total radioactivity. In no case did the proportion of hydrolyzed nucleotide exceed 30% of the original substrate concentration.
PDE4 (cAMP-specific) was investigated in the cytosol of human polymorphonuclear leukocytes (PMNL) [isolated from leukocyte concentrates, see Schudt et al., Arch Pharmacol 1991: 344, 682-690] using cAMP as substrate. The PDE3 inhibitor motapizone (1 μM) was used to suppress the PDE3 activity emanating from contaminated platelets.
(§6) The IC50 values were determined from the concentration-inhibition curves by nonlinear regression.
as §3

[2] = target: T3, PDE3 (cGMP-inhibited) in homogenates of human platelets (Homo sapiens, UniProt Q14432); assay: PDE3 inhibition, Method A (radioactive PDE assay after Thompson et al.); conditions: read-out: PDE3 [−log IC50, mol/l] (converted)
T3 construct: investigated in homogenates of human platelets; from tissue; host or cells: homogenates of human platelets
Description: as §4, §5
PDE3 (cGMP-inhibited) was investigated in homogenates of human platelets (see Schudt et al., Biochem Pharmacol 1991: 42, 153-162) using CAMP or cGMP as substrate.
as §6, §3

T2 sequence (Q07343 1-564 isoform Q07343-2): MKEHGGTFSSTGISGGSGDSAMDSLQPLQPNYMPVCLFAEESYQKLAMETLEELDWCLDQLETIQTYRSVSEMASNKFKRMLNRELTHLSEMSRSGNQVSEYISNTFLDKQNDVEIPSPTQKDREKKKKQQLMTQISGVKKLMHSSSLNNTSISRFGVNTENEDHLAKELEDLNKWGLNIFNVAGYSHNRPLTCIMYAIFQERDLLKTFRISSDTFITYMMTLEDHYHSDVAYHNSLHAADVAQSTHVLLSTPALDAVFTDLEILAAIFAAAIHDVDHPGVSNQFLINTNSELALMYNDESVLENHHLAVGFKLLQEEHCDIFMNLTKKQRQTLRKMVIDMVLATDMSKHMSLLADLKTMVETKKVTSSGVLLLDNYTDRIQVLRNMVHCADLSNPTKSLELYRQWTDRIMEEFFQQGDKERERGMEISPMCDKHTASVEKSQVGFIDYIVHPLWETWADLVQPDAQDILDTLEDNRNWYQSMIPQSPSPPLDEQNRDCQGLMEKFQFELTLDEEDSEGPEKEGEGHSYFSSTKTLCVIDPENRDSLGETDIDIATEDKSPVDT
T1 sequence (Q14432 whole entry): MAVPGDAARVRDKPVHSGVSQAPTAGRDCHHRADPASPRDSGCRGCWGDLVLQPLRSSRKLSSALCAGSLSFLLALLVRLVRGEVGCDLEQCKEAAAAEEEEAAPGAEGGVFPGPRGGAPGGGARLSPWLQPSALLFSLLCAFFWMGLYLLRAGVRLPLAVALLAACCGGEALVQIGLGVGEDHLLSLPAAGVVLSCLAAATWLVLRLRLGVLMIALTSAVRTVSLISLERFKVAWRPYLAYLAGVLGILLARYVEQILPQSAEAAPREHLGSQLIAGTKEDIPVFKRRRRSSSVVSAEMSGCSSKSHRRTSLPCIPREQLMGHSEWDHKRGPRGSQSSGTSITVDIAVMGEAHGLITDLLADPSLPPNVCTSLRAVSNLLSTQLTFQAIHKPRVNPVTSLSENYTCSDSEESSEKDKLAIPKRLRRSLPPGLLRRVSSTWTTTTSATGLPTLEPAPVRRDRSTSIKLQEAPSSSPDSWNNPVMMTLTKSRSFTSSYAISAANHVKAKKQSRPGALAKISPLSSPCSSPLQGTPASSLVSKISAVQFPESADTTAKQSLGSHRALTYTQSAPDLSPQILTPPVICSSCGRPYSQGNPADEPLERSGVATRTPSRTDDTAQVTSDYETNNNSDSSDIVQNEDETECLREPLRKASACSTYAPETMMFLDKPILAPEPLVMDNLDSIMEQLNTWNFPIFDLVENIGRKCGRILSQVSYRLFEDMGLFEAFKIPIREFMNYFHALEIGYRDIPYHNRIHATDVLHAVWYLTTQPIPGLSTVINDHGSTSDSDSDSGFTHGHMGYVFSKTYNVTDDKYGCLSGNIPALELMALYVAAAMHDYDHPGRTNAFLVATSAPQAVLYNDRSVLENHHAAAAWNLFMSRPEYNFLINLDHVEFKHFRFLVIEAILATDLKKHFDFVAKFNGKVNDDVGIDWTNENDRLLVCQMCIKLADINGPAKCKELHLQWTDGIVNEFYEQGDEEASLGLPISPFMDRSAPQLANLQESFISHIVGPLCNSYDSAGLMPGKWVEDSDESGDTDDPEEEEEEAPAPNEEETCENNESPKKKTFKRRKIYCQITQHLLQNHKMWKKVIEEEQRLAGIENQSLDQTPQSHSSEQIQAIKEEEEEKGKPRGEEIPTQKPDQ
T3 sequence (Q14432 whole entry): as above

Row | Structure (SMILES) | IC50 (PDE3A1) | IC50 (PDE4B2) | PDE4 [−log IC50, mol/l] [1] | IC50 [2]
1 | CCOc1cc2c(cc1OC)C(c1ccc(C(=O)N(C(C)C)[C@@H](C)COCCCc3ccccc3)cc1)=N[C@@H]1CCN(C)C[C@H]21 [Compound 21, 4-((4aR,10bS)-9-Ethoxy-8-methoxy-2-methyl-1,2,3,4,4a,10b-hexahydro-benzo [c][1,6]naphthyridin-6-yl)-N-isopropyl-N—[(S)-1-methyl-2-(3-phenyl-propoxy)-ethyl]-benzamide] | 39.8 nM | 2 nM |  | 
2 | CCOCCCNC(=O)c1ccc(C2=N[C@@H]3CCN(C)C[C@@H]3c3cc(OCC)c(OC)cc32)cc1.Cl [Compound 4, 4-((4aR,10bS)-9-Ethoxy-8-methoxy-2-methyl-1,2,3,4,4a,10b-hexahydro-benzo [c][1,6]naphthyridin-6-yl)-N-(3-ethoxy-propyl)-benzamide; hydrochloride] |  |  | 8.4 mol/l | 794 nM
3 | CCOc1cc2c(cc1OC)C(c1ccc(C(=O)N(C(C)C)[C@@H](C)COCc3cc(OC)cc(OC)c3)cc1)=N[C@@H]1CCN(C)C[C@H]21 [Compound 17, N—[(S)-2-(3,5-Dimethoxy-benzyloxy)-1-methyl-ethyl]-4-((4aR,10bS)-9-ethoxy-8-methoxy-2-methyl-1,2,3,4,4a,10b-hexahydro-benzo[c][1,6]naphthyridin-6-yl)-N-isopropyl-benzamide] | 39.8 nM | 0.316 nM |  | 

Other lines, results leading:

Row | IC50 (PDE3A1) | IC50 (PDE4B2) | PDE4 [−log IC50, mol/l] [1] | IC50 [2] | Structure (SMILES)
4 | 25.1 nM | 0.398 nM |  |  | CCOc1cc2c(cc1OC)C(c1ccc(C(=O)N(C(C)C)[C@@H](C)COCc3ccc(C#N)cc3)cc1)=N[C@@H]1CCN(C)C[C@H]21 [Compound 19, N—[(S)-2-(4-Cyano-benzyloxy)-1-methyl-ethyl]-4-((4aR,10bS)-9-ethoxy-8-methoxy-2-methyl-1,2,3,4,4a,10b-hexahydro-benzo[c][1,6]naphthyridin-6-yl)-N-isopropyl-benzamide]
5 | 39.8 nM | 0.316 nM |  |  | CCOc1cc2c(cc1OC)C(c1ccc(C(=O)N(C(C)C)[C@@H](C)COCc3ccc(OC)cc3)cc1)=N[C@@H]1CCN(C)C[C@H]21 [Compound 20, 4-((4aR,10bS)-9-Ethoxy-8-methoxy-2-methyl-1,2,3,4,4a,10b-hexahydro-benzo [c][1,6]naphthyridin-6-yl)-N-isopropyl-N—[(S)-2-(4-methoxy-benzyloxy)-1-methyl-ethyl]-benzamide]
6 | 79.4 nM | 1 nM |  |  | CCOc1cc2c(cc1OC)C(c1ccc(C(=O)N(C(C)C)[C@@H](C)COCc3ccc(C(F)(F)F)cc3)cc1)=N[C@@H]1CCN(C)C[C@H]21 [Compound 18, 4-((4aR,10bS)-9-Ethoxy-8-methoxy-2-methyl-1,2,3,4,4a,10b-hexahydro-benzo [c][1,6]naphthyridin-6-yl)-N-isopropyl-N—[(S)-1-methyl-2-(4-trifluoromethyl-benzyloxy)-ethyl]-benzamide]
